Experimental data: patent publication US6864396B2, “Substituted pentacene semiconductors” (3M Innovative Properties Company, priority 2001, dated 2005)

Format: physicochemical
Settings: for Weight %: solubility in THF, 25° C., calculated with extinction coefficient of pentacene
Procedure: The solubility of several alkyl substituted pentacenes in tetrahydrofuran (THF) was compared with that of pentacene. Samples were prepared by adding excess alkyl substituted pentacene compounder pentacene compound to newly opened THF and sonicating for 20-30 seconds to facilitate dissolution. All handling of the solutions and solvent was done in a nitrogen-purged environment. Solutions were transferred to a 1 cm cuvette with a disposable pipette. The cuvette was then placed in a spectrophotometer for 5 minutes for temperature equilibration (25° C.). Absorbance measurements were made using an Hewlett Packard 8453 photodiode array spectrophotometer over a range of wavelengths from 200 to 1100 nm. THF was used as a reference blank. All of the spectrographs were corrected for baseline differences, which possibly resulted from excess compound in suspension. In calculating the concentration and weight % values, the extinction coefficient of pentacene that is, 10^3.76 at 577 nm was used for all substituted pentacenes.

Row | SMILES | Concentration | Solubility in THF compared with pentacene, 2,9-dimethylpentacene, 2,10-dimethylpentacene, 2,9-didodecylpentacene | Weight % | Absorbance at 577 nm | Relative Absorbance
1 | CC(CCc1ccc2cc3cc4cc5cc(CCC(C)CC(C)(C)C)ccc5cc4cc3cc2c1)CC(C)(C)C (centres unmarked) [2,9-di(3,5,5-trimethylhexyl)pentacene, 2,9-Di(3,5,5-trimethylhexyl)pentacene] | 3350 µM | significantly more soluble | 2.00 × 10^−1 Weight % | – | –
2 | CCCCCCc1ccc2cc3cc4cc5cc(CCCCCC)ccc5cc4cc3cc2c1 [2,9-dihexylpentacene, 2,9-Dihexylpentacene] | 172 µM | significantly more soluble | 8.62 × 10^−3 Weight % | 0.987 | 6.752
3 | Cc1ccc2cc3cc4cc5cc(C)ccc5cc4cc3cc2c1 [2,9-dimethylpentacene, 2,9-Dimethylpentacene] | 3.59 µM | – | 1.64 × 10^−4 Weight % | 0.021 | 0.142
4 | Cc1ccc2cc3cc4cc5ccc(C)cc5cc4cc3cc2c1 [2,10-dimethylpentacene, 2,10-Dimethylpentacene] | 6.06 µM | – | 2.77 × 10^−4 Weight % | 0.035 | 0.239
5 | c1ccc2cc3cc4cc5ccccc5cc4cc3cc2c1 [pentacene] | 25.4 µM | – | 7.95 × 10^−4 Weight % | 0.146 | 1.000

Now from value to molecule, other results behind:

Row | Concentration | Solubility in THF compared with pentacene, 2,9-dimethylpentacene, 2,10-dimethylpentacene, 2,9-didodecylpentacene | Weight % | SMILES | Absorbance at 577 nm | Relative Absorbance
6 | 10.7 µM | – | 7.38 × 10^−4 Weight % | CCCCCCCCCCCCc1ccc2cc3cc4cc5cc(CCCCCCCCCCCC)ccc5cc4cc3cc2c1 [2,9-didodecylpentacene, 2,9-Didodecylpentacene] | 0.061 | 0.420
7 | 243 µM | significantly more soluble | 1.45 × 10^−2 Weight % | CCCCCCCCCc1ccc2cc3cc4cc5cc(CCCCCCCCC)ccc5cc4cc3cc2c1 [2,9-dinonylpentacene, 2,9-Dinonylpentacene] | 1.398 | 9.562
